In patent US5376637A, “Pharmaceutical preparation containing vasoactive intestinal polypeptide or its analogue” (Sanwa Kagaku Kenkyusho Co., Ltd., priority 1991, dated 1994):

Experiments:
PCA reaction = assay: Passive cutaneous anaphylaxis test (PCA reaction); type: in vivo; details: male rat
Method: A rat was immunized with egg-albumin suspended in aluminum hydroxide gel in a conventional manner and a blood letting was carried out to obtain an antiserum rich in IgE.
A male rat was anesthetized with ethyl ether and hairs on back were sheared to intradermally inject by 0.1 ml of the antiserum solution (diluted to 5-folds in volume) described in Item (1), at both sides with a certain distance from a medial line on the back. After 72 hours, a mixed solution of egg albumin (5 mg/kg), 2% Evans blue and a test compound (L-Leu^17 ]-VIP-Hse or pure native type VIP) or disodium cromoglycate was injected into a vein, under anesthetized with pentobarbital. After 30 minutes from an occasion of PCA reaction, the experimental animal was killed and pealed-off the skin to obtain a piece of the skin dyed with the coloring matter.
The coloring matter was extracted in accordance with the method described by Katayama ["Microbio. Immunol.", Vol. 22, No. 2, pages 89 (1987)] and an amount thereof was measured at 620 nm in wave length to calculate an inhibition of the PCA reaction.

arterial pressure = assay: Hypotensing action in anesthetized beagle dog; type: in vivo; details: injection in femoral artery, 0.02-10 μg/kg
Method: In a femoral artery of anesthetized beagle dog (body weight: about 10 kg), each of VIP analogues as Test Samples was injected in a dose of 0.02-10 μg/kg and measured an arterial pressure to prepare a chart showing a relation between the dose and change in blood pressure and check an amount of dose which shall cause a reduction of 15 mmHg in blood pressure.

[1] = dose 0.01 mg/kg injected into a vein
[2] = dose 0.1 mg/kg injected into a vein
[3] = dose 1.0 mg/kg injected into a vein

Structure (SMILES)	Inhibition (%) of PCA reaction (PCA reaction; [1]) [%]	Inhibition (%) of PCA reaction (PCA reaction; [2]) [%]	Inhibition (%) of PCA reaction (PCA reaction; [3]) [%]	amount of dose causing a reduction of 15 mmHg in blood pressure, relative value (native type VIP = 100%) (arterial pressure) [%]
O=C([O-])c1cc(=O)c2c(OCC(O)COc3cccc4oc(C(=O)[O-])cc(=O)c34)cccc2o1.[Na+].[Na+] [Disodium cromoglycate]	5	28	31	–
CC[C@H](C)[C@H](NC(=O)[C@H](CO)NC(=O)[C@H](CC(N)=O)NC(=O)[C@H](CC(C)C)NC(=O)[C@H](Cc1ccc(O)cc1)NC(=O)[C@H](CCCCN)NC(=O)[C@H](CCCCN)NC(=O)[C@@H](NC(=O)[C@H](C)NC(=O)[C@H](CCSC)NC(=O)[C@H](CCC(N)=O)NC(=O)[C@H](CCCCN)NC(=O)[C@H](CCCNC(=N)N)NC(=O)[C@H](CC(C)C)NC(=O)[C@H](CCCNC(=N)N)NC(=O)[C@@H](NC(=O)[C@H](Cc1ccc(O)cc1)NC(=O)[C@H](CC(N)=O)NC(=O)[C@H](CC(=O)O)NC(=O)[C@@H](NC(=O)[C@H](Cc1ccccc1)NC(=O)[C@@H](NC(=O)[C@H](C)NC(=O)[C@H](CC(=O)O)NC(=O)[C@H](CO)NC(=O)[C@@H](N)Cc1c[nH]cn1)C(C)C)[C@@H](C)O)[C@@H](C)O)C(C)C)C(=O)N[C@@H](CC(C)C)C(=O)N[C@@H](CC(N)=O)C(N)=O [Native type VIP, vasoactive intestinal polypeptide]	23	72	67	100
